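Dose response: 5 concentrations. Exposure: 48 h. Format: 96-well plates. Endpoint: linear interpolation; highest concentration if not reached. TGI: total growth inhibition.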
Experiments:
Assay in all cases: NCI-60 cell line screen, 48 h
SK-OV-3 ovarian = system: SK-OV-3 ovarian
M14 melanoma = system: M14 melanoma
K-562 leukemia = system: K-562 leukemia
CCRF-CEM leukemia = system: CCRF-CEM leukemia
U251 CNS = system: U251 CNS
HS 578T breast = system: HS 578T breast
OVCAR-3 ovarian = system: OVCAR-3 ovarian
EKVX NSCLC = system: EKVX NSCLC
SK-MEL-2 melanoma = system: SK-MEL-2 melanoma
NCI-H226 lung = system: NCI-H226 lung
RXF 393 renal = system: RXF 393 renal
SK-MEL-28 melanoma = system: SK-MEL-28 melanoma
MALME-3M melanoma = system: MALME-3M melanoma
SN12C renal = system: SN12C renal
SF-295 CNS = system: SF-295 CNS
HCT-15 colon = system: HCT-15 colon
ACHN renal = system: ACHN renal
COLO 205 colon = system: COLO 205 colon
SW-620 colon = system: SW-620 colon
CAKI-1 renal = system: CAKI-1 renal
HOP-62 NSCLC = system: HOP-62 NSCLC
SK-MEL-5 melanoma = system: SK-MEL-5 melanoma
DU-145 prostate = system: DU-145 prostate
MDA-MB-231 breast = system: MDA-MB-231 breast
MDA-MB-435 = system: MDA-MB-435
SNB-75 CNS = system: SNB-75 CNS
UACC-257 melanoma = system: UACC-257 melanoma
UO-31 renal = system: UO-31 renal
SF-268 CNS = system: SF-268 CNS
MOLT-4 leukemia = system: MOLT-4 leukemia
HL-60(TB) leukemia = system: HL-60(TB) leukemia
SNB-19 CNS = system: SNB-19 CNS
SF-539 CNS = system: SF-539 CNS
MCF7 breast = system: MCF7 breast
OVCAR-5 ovarian = system: OVCAR-5 ovarian
OVCAR-8 ovarian = system: OVCAR-8 ovarian
PC-3 prostate = system: PC-3 prostate
BT-549 breast = system: BT-549 breast
T-47D breast = system: T-47D breast
TK-10 renal = system: TK-10 renal
NCI-H23 lung = system: NCI-H23 lung
RPMI-8226 leukemia = system: RPMI-8226 leukemia
KM12 colon = system: KM12 colon
NCI-H460 lung = system: NCI-H460 lung
UACC-62 melanoma = system: UACC-62 melanoma
IGROV1 ovarian = system: IGROV1 ovarian
MDA-N = system: MDA-N
SR leukemia = system: SR leukemia
HCT-116 colon = system: HCT-116 colon
NCI-H522 lung = system: NCI-H522 lung
A549 NSCLC = system: A549 NSCLC
HT29 colon = system: HT29 colon
786-0 renal = system: 786-0 renal
LOX IMVI melanoma = system: LOX IMVI melanoma
HCC-2998 colon = system: HCC-2998 colon
A498 renal = system: A498 renal
NCI/ADR-RES ovarian = system: NCI/ADR-RES ovarian
OVCAR-4 ovarian = system: OVCAR-4 ovarian

## CC1=Nc2c(N)nc(N)nc2N(C)C1
SK-OV-3 ovarian
  TGI: > 100 µM
M14 melanoma
  TGI: > 100 µM
K-562 leukemia
  TGI: > 100 µM
CCRF-CEM leukemia
  TGI: > 100 µM
U251 CNS
  TGI: > 100 µM
HS 578T breast
  TGI: > 100 µM
OVCAR-3 ovarian
  TGI: > 100 µM
EKVX NSCLC
  TGI: > 100 µM
SK-MEL-2 melanoma
  TGI: > 100 µM
NCI-H226 lung
  TGI: > 100 µM
RXF 393 renal
  TGI: > 100 µM
SK-MEL-28 melanoma
  TGI: > 100 µM
MALME-3M melanoma
  TGI: > 100 µM
SN12C renal
  TGI: > 100 µM
SF-295 CNS
  TGI: > 100 µM
HCT-15 colon
  TGI: > 100 µM
ACHN renal
  TGI: > 100 µM
COLO 205 colon
  TGI: > 100 µM
SW-620 colon
  TGI: > 100 µM
CAKI-1 renal
  TGI: > 100 µM
HOP-62 NSCLC
  TGI: > 100 µM
SK-MEL-5 melanoma
  TGI: > 100 µM
DU-145 prostate
  TGI: > 100 µM
MDA-MB-231 breast
  TGI: > 100 µM
MDA-MB-435
  TGI: > 100 µM
SNB-75 CNS
  TGI: > 100 µM
UACC-257 melanoma
  TGI: > 100 µM
UO-31 renal
  TGI: > 100 µM
SF-268 CNS
  TGI: > 100 µM
MOLT-4 leukemia
  TGI: > 100 µM
HL-60(TB) leukemia
  TGI: > 100 µM
SNB-19 CNS
  TGI: > 100 µM
SF-539 CNS
  TGI: > 100 µM
MCF7 breast
  TGI: > 100 µM
OVCAR-5 ovarian
  TGI: > 100 µM
OVCAR-8 ovarian
  TGI: > 100 µM
PC-3 prostate
  TGI: > 100 µM
BT-549 breast
  TGI: > 100 µM
T-47D breast
  TGI: > 100 µM
TK-10 renal
  TGI: > 100 µM
NCI-H23 lung
  TGI: > 100 µM
RPMI-8226 leukemia
  TGI: > 100 µM
KM12 colon
  TGI: > 100 µM
NCI-H460 lung
  TGI: > 100 µM
UACC-62 melanoma
  TGI: > 100 µM
IGROV1 ovarian
  TGI: > 100 µM
MDA-N
  TGI: > 100 µM

## COc1cc2c(c(OC)c1)C(C)=NC(C)C2 (centres undefined)
SK-OV-3 ovarian
  TGI: > 100 µM
M14 melanoma
  TGI: > 100 µM
K-562 leukemia
  TGI: > 100 µM
CCRF-CEM leukemia
  TGI: > 100 µM
HS 578T breast
  TGI: > 100 µM
SR leukemia
  TGI: > 100 µM
EKVX NSCLC
  TGI: > 100 µM
NCI-H226 lung
  TGI: > 100 µM
HCT-116 colon
  TGI: > 100 µM
SK-MEL-28 melanoma
  TGI: > 100 µM
MALME-3M melanoma
  TGI: > 100 µM
NCI-H522 lung
  TGI: > 100 µM
SN12C renal
  TGI: > 100 µM
SF-295 CNS
  TGI: > 100 µM
HCT-15 colon
  TGI: > 100 µM
ACHN renal
  TGI: > 100 µM
COLO 205 colon
  TGI: > 100 µM
SW-620 colon
  TGI: > 100 µM
CAKI-1 renal
  TGI: > 100 µM
HOP-62 NSCLC
  TGI: > 100 µM
SK-MEL-5 melanoma
  TGI: > 100 µM
DU-145 prostate
  TGI: > 100 µM
MDA-MB-231 breast
  TGI: > 100 µM
MDA-MB-435
  TGI: > 100 µM
UACC-257 melanoma
  TGI: > 100 µM
UO-31 renal
  TGI: > 100 µM
SF-268 CNS
  TGI: > 100 µM
MOLT-4 leukemia
  TGI: > 100 µM
HL-60(TB) leukemia
  TGI: > 100 µM
SNB-19 CNS
  TGI: > 100 µM
SF-539 CNS
  TGI: > 100 µM
MCF7 breast
  TGI: > 100 µM
OVCAR-8 ovarian
  TGI: > 100 µM
PC-3 prostate
  TGI: > 100 µM
A549 NSCLC
  TGI: > 100 µM
BT-549 breast
  TGI: > 100 µM
T-47D breast
  TGI: > 100 µM
HT29 colon
  TGI: > 100 µM
786-0 renal
  TGI: > 100 µM
TK-10 renal
  TGI: > 100 µM
LOX IMVI melanoma
  TGI: > 100 µM
NCI-H23 lung
  TGI: > 100 µM
RPMI-8226 leukemia
  TGI: > 100 µM
KM12 colon
  TGI: > 100 µM
HCC-2998 colon
  TGI: > 100 µM
NCI-H460 lung
  TGI: > 100 µM
A498 renal
  TGI: > 100 µM
UACC-62 melanoma
  TGI: > 100 µM
IGROV1 ovarian
  TGI: > 100 µM
MDA-N
  TGI: > 100 µM

## O=C(Nc1ccc(Cl)cc1)Oc1ccc(C(=S)Nc2ccc(Br)cc2)cc1
SK-OV-3 ovarian
  TGI: > 100 µM
M14 melanoma
  TGI: 36 µM
K-562 leukemia
  TGI: 57.2 µM
CCRF-CEM leukemia
  TGI: 20.9 µM
U251 CNS
  TGI: 75.5 µM
HS 578T breast
  TGI: > 100 µM
OVCAR-3 ovarian
  TGI: 54.5 µM
NCI/ADR-RES ovarian
  TGI: 61.4 µM
SR leukemia
  TGI: 36.7 µM
EKVX NSCLC
  TGI: 19.6 µM
SK-MEL-2 melanoma
  TGI: 27.7 µM
HCT-116 colon
  TGI: 54.4 µM
SK-MEL-28 melanoma
  TGI: 48.4 µM
MALME-3M melanoma
  TGI: 89.2 µM
NCI-H522 lung
  TGI: 37.2 µM
SF-295 CNS
  TGI: > 100 µM
HCT-15 colon
  TGI: 35.7 µM
ACHN renal
  TGI: > 100 µM
COLO 205 colon
  TGI: 23.6 µM
SW-620 colon
  TGI: > 100 µM
CAKI-1 renal
  TGI: 35.8 µM
HOP-62 NSCLC
  TGI: > 100 µM
SK-MEL-5 melanoma
  TGI: 23 µM
DU-145 prostate
  TGI: > 100 µM
MDA-MB-435
  TGI: 38.6 µM
UACC-257 melanoma
  TGI: > 100 µM
UO-31 renal
  TGI: > 100 µM
SF-268 CNS
  TGI: > 100 µM
MOLT-4 leukemia
  TGI: 46.2 µM
HL-60(TB) leukemia
  TGI: 18.1 µM
SNB-19 CNS
  TGI: > 100 µM
SF-539 CNS
  TGI: 39.7 µM
MCF7 breast
  TGI: 70.2 µM
OVCAR-5 ovarian
  TGI: 38.4 µM
OVCAR-8 ovarian
  TGI: 22.7 µM
OVCAR-4 ovarian
  TGI: 75.8 µM
PC-3 prostate
  TGI: > 100 µM
A549 NSCLC
  TGI: > 100 µM
BT-549 breast
  TGI: 54.1 µM
T-47D breast
  TGI: 88.9 µM
HT29 colon
  TGI: 18.1 µM
786-0 renal
  TGI: 48.6 µM
LOX IMVI melanoma
  TGI: 9.32 µM
NCI-H23 lung
  TGI: 63.9 µM
RPMI-8226 leukemia
  TGI: > 100 µM
KM12 colon
  TGI: 25.5 µM
HCC-2998 colon
  TGI: 33.6 µM
NCI-H460 lung
  TGI: > 100 µM
A498 renal
  TGI: 54.9 µM
UACC-62 melanoma
  TGI: 12.2 µM
IGROV1 ovarian
  TGI: 25 µM
MDA-N
  TGI: 67.2 µM

From PubChem BioAssay (NCI)
